40 compounds from US20210236476A1, “METHODS OF TREATING CANCER WITH SMALL MOLECULE PD-L1 INHIBITORS” (CHEMOCENTRYX, INC., priority 2018, published 2021) can be followed below.

The target of this test is T1, human PD-L1 / human PD-1 interaction (Homo sapiens, UniProt Q9NZQ7).
T1 construct: purchased R&D (PD-L1); ACRO Biosystems (PD-1, biotin)
The experiment in a line: ELISA of PD-1/PD-L1 interaction. The class given is binding. The procedure:
The activity of Compound 1.041 was assessed with an ELISA assay assessing the direct binding of recombinant PD-1 and PD-L1 proteins (FIG. 1A), a dimerization ELISA assay assessing the direct binding/dimerization of recombinant PD-L1 proteins (FIG. 1B), a cell based assay measuring the downstream signaling following the interaction of PD-1 and PD-L1 using a Luciferase reporter assay with cell lines overexpressing PD-1 and PD-L1 (FIG. 1C), and a mixed lymphocyte reaction assay measuring the functional outcome of upregulation of IFNg secretion, using allogenic primary human immune cells (FIG. 1D). Briefly, the mixed lymophocyte reaction assay was performed as follows: Dendritic cells and CD4+T Cells from unmatched donors were cultured together for 5 days in 96 well-flat bottom plates. Test compound was added as indicated at starting concentration of 1 μM with 1:4 dilutions with DMSO. Supernatants were harvested after 5 days of incubation and detection of human IFNg was performed by ELISA. […]
96 Well plates were coated with 1 μg/mL of human PD-L1 (obtained from R&D) in
PBS overnight at 4° C. The wells were then blocked with 2% BSA in PBS (WN) with 0.05% TWEEN-20 for 1 hour at 37° C. The plates were washed 3 times with PBS/0.05% TWEEN-20 and the compounds were serial diluted (1:5) in dilution medium and added to the ELISA plates. Human PD-1 and biotin 0.3μg/mL (ACRO Biosystems) were added and incubated for 1 hour at 37° C. then washed 3 times with PBS/0.05% TWEEN-20. A second block was performed with 2% BSA in PBS (WN)/0.05% TWEEN-20 for 10 min at 37° C. and was washed 3 times with PBS/0.05% TWEEN-20. Streptavidin—HRP was added for 1 hour at 37° C. then washed 3 times with PBS/0.05% TWEEN-20. TMB substrate was added and reacted for 20 min at 37° C. A stop solution (2 N aqueous H2SO4) was added. The absorbance was read at 450 nm using a micro-plate spectrophotometer.
(An ELISA detects its analyte on a solid surface through an enzyme-linked reagent.)

T1 sequence (Q9NZQ7 19-239 limits assumed): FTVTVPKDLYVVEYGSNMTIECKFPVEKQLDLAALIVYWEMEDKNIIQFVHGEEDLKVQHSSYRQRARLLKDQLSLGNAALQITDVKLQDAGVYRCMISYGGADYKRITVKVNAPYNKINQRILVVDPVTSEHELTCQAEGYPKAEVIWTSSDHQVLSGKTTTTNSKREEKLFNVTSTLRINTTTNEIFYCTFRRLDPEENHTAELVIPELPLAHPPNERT

As for `Cc1c(OCCCN2CCC(O)CC2)cccc1-c1cccc2c1CC[C@@H]2Oc1cc(OCc2cncc(C#N)c2)c(CN2CC(O)C2)cc1Cl`, the IC50 is below 5 nM.

`N#Cc1cncc(COc2cc(O[C@H]3CCc4c(-c5cccc(OCCCN6CCC(F)CC6)c5Cl)cccc43)c(Cl)cc2CN[C@@H]2CCOC[C@@H]2O)c1`: the IC50 was below 5 nM. `Cc1c(OCCCN2CCC(O)CC2)cccc1-c1cccc2c1CC[C@@H]2Oc1cc(OCc2cc(C#N)cc(C#N)c2)c(CN[C@@](C)(CO)C(=O)O)cc1Cl` yielded an IC50 below 5 nM. To `N#Cc1cncc(COc2cc(O[C@H]3CCc4c(-c5cccc(OCCCN6CCC(O)CC6)c5Cl)cccc43)c(Cl)cc2CNC[C@@H]2CCC(=O)N2)c1` belongs below 5 nM.

`Cc1c(OCCCN2CC3(CC(O)C3)C2)cccc1-c1cccc2c1CC[C@@H]2Oc1cc(OCc2cc(C#N)cc(C#N)c2)c(CNC[C@H]2CCC(=O)N2)cc1Cl` displayed a concentration for half-maximal inhibition (IC50) below 5 nM. To `Cc1c(OCCCN2CCC(F)CC2)cccc1-c1cccc2c1CC[C@@H]2Oc1cc(OCc2cc(C#N)cc(C#N)c2)c(CN[C@H]2CCOC[C@H]2O)cc1Cl` belongs below 5 nM. `Cc1c(OCCCN2CCC(O)CC2)cccc1-c1cccc2c1CC[C@@H]2Oc1cc(OCc2cc(C#N)cc(C#N)c2)c(CN[C@H](C(=O)O)[C@@H](C)O)cc1Cl` returned an IC50 below 5 nM. Compound `N#Cc1cncc(COc2cc(O[C@H]3CCc4c(-c5cccc(OCCCN6CC(O)C6)c5Cl)cccc43)c(Cl)cc2CN2CC3(CC(O)C3)C2)c1` had an IC50 below 5 nM. As to `Cc1c(OCCCN2CCC(O)CC2)cccc1-c1cccc2c1CC[C@@H]2Oc1cc(OCc2cncc(C#N)c2)c(CN[C@@](C)(CO)C(=O)O)cc1Cl`, the IC50 was below 5 nM. On to `CC(CO)(NCc1cc(Cl)c(O[C@H]2CCc3c(-c4cccc(OCCCN5CC6(CC(O)C6)C5)c4Cl)cccc32)cc1OCc1cncc(C#N)c1)C(=O)O` (stereo partly shown), for which the half-inhibitory concentration (IC50) was below 5 nM. `Cc1c(OCCCN2CCC(F)CC2)cccc1-c1cccc2c1CC[C@@H]2Oc1cc(OCc2cncc(C#N)c2)c(CNC[C@@H]2CCC(=O)N2)cc1Cl` displayed an IC50 below 5 nM.

`N#Cc1cncc(COc2cc(O[C@H]3CCc4c(-c5cccc(OCCCN6CCC(F)CC6)c5Cl)cccc43)c(Cl)cc2CN[C@@H]2CC[C@H]2O)c1` returned an IC50 below 5 nM. To `C[C@@](CO)(NCc1cc(Cl)c(O[C@@H]2c3cccc(-c4cccc(OCCCN5CC(F)C5)c4Cl)c3C[C@@H]2F)cc1OCc1cncc(C#N)c1)C(=O)O` belongs below 5 nM; to `CC(CO)(NCc1cc(Cl)c(O[C@H]2CCc3c(-c4cccc(OCCCN5CC(O)C5)c4Cl)cccc32)cc1OCc1cccnc1)C(=O)O` (stereo partly shown), below 5 nM. The result for `CCOc1cc(O[C@H]2CCc3c(-c4cccc(OCCCN5CC[C@@H](O)C5)c4C)cccc32)c(Cl)cc1CNC(C)(CO)C(=O)O` (stereo partly shown) reads below 5 nM; that for `Cc1c(OCCCN2CCC2)cccc1-c1cccc2c1CC[C@@H]2Oc1cc(OCc2cc(C#N)cc(C#N)c2)c(CNC[C@H]2CCC(=O)N2)cc1Cl`, below 5 nM; that for `C[C@@](CO)(NCc1cc(Cl)c(O[C@@H]2c3cccc(-c4cccc(OCCCN5CC(O)C5)c4Cl)c3C[C@@H]2F)cc1OCc1cncc(C#N)c1)C(=O)O`, below 5 nM. The result for `N#Cc1cncc(COc2cc(O[C@H]3CCc4c(-c5cccc(OCCCN6CC7(CC(O)C7)C6)c5Cl)cccc43)c(Cl)cc2CNC[C@@H]2CCC(=O)N2)c1` reads below 5 nM; that for `Cc1c(OCCCN2CCC(O)CC2)cccc1-c1cccc2c1CC[C@@H]2Oc1cc(OCc2cc(C#N)cc(C#N)c2)c(CN[C@@H]2CCCC[C@@H]2O)cc1Cl`, below 5 nM. Compound `N#Cc1cncc(COc2cc(O[C@H]3CCc4c(-c5cccc(OCCCN6CCC(F)CC6)c5Cl)cccc43)c(Cl)cc2CN[C@H]2CCC[C@H]2O)c1` gave a half-inhibitory concentration (IC50) below 5 nM. The result for `CC(CO)(NCc1cc(Cl)c(O[C@H]2CCc3c(-c4cccc(OCCCN5CCCCC5)c4Cl)cccc32)cc1OCc1cncc(C#N)c1)C(=O)O` (stereo partly shown) reads below 5 nM; that for `N#Cc1cncc(COc2cc(O[C@H]3CCc4c(-c5cccc(OCCCN6CCC6)c5Cl)cccc43)c(Cl)cc2CN[C@@H]2CCCC[C@@H]2O)c1`, below 5 nM; that for `N#Cc1cncc(COc2cc(O[C@H]3CCc4c(-c5cccc(OCCCN6CCCCC6)c5Cl)cccc43)c(Cl)cc2CNC[C@H]2CCC(=O)N2)c1`, below 5 nM. The compound `N#Cc1cncc(COc2cc(O[C@H]3CCc4c(-c5cccc(OCCCN6CC7(CC(F)C7)C6)c5Cl)cccc43)c(Cl)cc2CN[C@@H]2CC[C@H]2O)c1` displayed an IC50 below 5 nM. As to `Cc1c(OCCCN2CCC(O)CC2)cccc1-c1cccc2c1CC[C@@H]2Oc1cc(OCc2cncc(C#N)c2)c(CNCc2cn(C)cn2)cc1Cl`, the 50% inhibitory concentration (IC50) was below 5 nM.

In turn, `C[C@@](CO)(NCc1cc(Cl)c(OC2CCc3c(-c4cccc(OCCCN5CC(O)C5)c4Cl)cc(F)cc32)cc1OCc1cncc(C#N)c1)C(=O)O` (stereo partly shown) came in with a concentration for half-maximal inhibition (IC50) below 5 nM. In the case of `CC(C)OC(=O)[C@](C)(CO)NCc1cc(Cl)c(O[C@H]2CCc3c(-c4cccc(OCCCN5CC(O)C5)c4Cl)cccc32)cc1OCc1cncc(C#N)c1`, the IC50 was below 5 nM.

With `N#Cc1cncc(COc2cc(O[C@H]3CCc4c(-c5cccc(OCCCN6CC7(CC(O)C7)C6)c5Cl)cccc43)c(Cl)cc2CN[C@@H]2CCC[C@@H]2O)c1`, the IC50 is below 5 nM. Compound `CCOc1cc(O[C@H]2CCc3c(-c4cccc(OCCCN5CCC5(C)C)c4C)cccc32)c(Cl)cc1CNC[C@@H]1CCC(=O)N1` showed an IC50 below 5 nM. As to `Cc1c(OCCCN2CCC(F)CC2)cccc1-c1cccc2c1CC[C@@H]2Oc1cc(OCc2cc(C#N)cc(C#N)c2)c(CN[C@@H]2CCC(=O)NC2)cc1Cl`, the IC50 was below 5 nM. The result for `CCN1CCC(COc2cccc(-c3cccc4c3CC[C@@H]4Oc3cc(OCc4cncc(C#N)c4)c(CN[C@H]4CCC(=O)NC4)cc3Cl)c2Cl)C1` (stereo partly shown) reads below 5 nM; that for `N#Cc1cncc(COc2cc(O[C@H]3CCc4c(-c5cccc(OCCCN6CCC6)c5Cl)cccc43)c(Cl)cc2CNC[C@H]2CCC(=O)N2)c1`, below 5 nM. To `Cc1c(OCCCN2CCC(F)CC2)cccc1-c1cccc2c1CC[C@@H]2Oc1cc(OCc2cc(C#N)cc(C#N)c2)c(CN[C@H]2CCC[C@@H]2O)cc1Cl` belongs below 5 nM.

Compound `Cc1c(OCCCN[C@@H]2CCCC[C@@H]2O)cccc1-c1cccc2c1CC[C@@H]2Oc1cc(OCc2cncc(C#N)c2)c(CN[C@H](C(=O)O)[C@@H](C)O)cc1Cl` yielded a 50% inhibitory concentration (IC50) below 5 nM. The result for `Cc1c(OCCCN2[C@H](C)CC[C@@H]2C)cccc1-c1cccc2c1CC[C@@H]2Oc1cc(OCc2cc(C#N)cc(C#N)c2)c(CN[C@H]2CCC(=O)NC2)cc1Cl` reads below 5 nM; that for `CC1(F)CCN(CCCOc2cccc(-c3cccc4c3CC[C@@H]4Oc3cc(OCc4cncc(C#N)c4)c(CN[C@H]4CCC(=O)NC4)cc3Cl)c2Cl)CC1`, 5 to 500 nM; that for `N#Cc1cncc(COc2cc(O[C@H]3CCc4c(-c5cccc(OCCCN6CCC(F)CC6)c5Cl)cccc43)c(Cl)cc2CNCC2CNC(=O)C2)c1` (stereo partly shown), below 5 nM. The result for `Cc1c(OCCCN2[C@@H](C)CC[C@@H]2C)cccc1-c1cccc2c1CC[C@@H]2Oc1cc(OCc2cc(C#N)cc(C#N)c2)c(CN[C@H]2CCC(=O)NC2)cc1Cl` reads below 5 nM; that for `Cc1c(OCCCN2CCC(F)CC2)cccc1-c1cccc2c1CC[C@@H]2Oc1cc(OCc2cncc(C(N)=O)c2)c(CN(C)CCC(=O)O)cc1Cl`, below 5 nM.

Take `Cc1c(OCCCN2CCC(F)CC2)cccc1-c1cccc2c1CC[C@@H]2Oc1cc(OCc2cncc(C#N)c2)c(CNCC2CCC(=O)N2)cc1Cl` (stereo partly shown): the IC50 is below 5 nM.

By IC50 is commonly meant the concentration at which inhibition is half-maximal. A high value points to lower potency.
